Measured values from patent US10570140B2, “Selective inhibitors of protein arginine methyltransferase 5 (PRMT5)” (Prelude Therapeutics, Incorporated, priority 2017, dated 2020).

How the values were obtained:
[1] = biological target: PRMT5/MEP50 complex (Homo sapiens (Human), UniProt O14744); assay: PRMT5 biochemical assay (3H-SAM filter plate, histone H2A substrate); conditions: PRMT5/MEP50 5 nM, histone H2A 5 μM, SAM 1 μM; read-out: PRMT5 IC50
Method: Biochemical Assay Protocol
Compounds were solubilized and 3-fold diluted in 100% DMSO. […] Standard reactions were performed in a total volume of 50 μl in assay buffer, with histone H2A (5 μM final) as substrate. To this was added the PRMT5/MEP50 complex diluted to provide a final assay concentration of 5 nM and the compounds were allowed to preincubate for 15 to 20 minutes at room temperature. The reaction was initiated by adding S-[3H-methyl]-adenosyl-L-methionine (PerkinElmer) to final concentration of 1 μM. Following a 60 minutes incubation at 30° C., the reaction was stopped by adding 100 μL of 20% TCA. Each reaction was spotted onto filter plate (MultiScreen FB Filter Plate, Millipore), and washed 5 times with PBS buffer, Scintillation fluid was added to the filter plate and read in a scintillation counter. IC50 values were determined by fitting the data to the standard 4 parameters with Hill Slope using GraphPad Prism software.

[2] = system: sDMA; assay: Western blot for symmetric di-methyl arginine (sDMA) IC50 in Granta cells; type: cell-based; conditions: Homo sapiens, 72 h; Granta-519 cell line, 3 days
[3] = system: Granta-519 cells; assay: Cell proliferation assay on Granta-519 cells (CCK-8, day 10); type: cell-based; conditions: Homo sapiens, 240 h, Granta-519 cell line, read-out: Prolif. IC50
Method: Cell Proliferation Assay to Determine IC50 on Granta-519 Cells
Granta-519 cells were maintained in PRMI 1640 (Corning Cellgro, Catalog #: 10-040-CV) medium supplemented with 10% v/v FBS (GE Healthcare, Catalog #: SH30910.03). Compounds were dissolved in DMSO to make 10 mM stocks and stored at −20° C. Nine-point, 3-fold serial dilutions were made with DMSO with top concentration at 1 mM (working stocks).
On day of experiment, compound working stocks were further diluted at 1:50 with fresh medium in 96 well plate, and 10 μL of diluted drugs were added to a new 96 well plate for proliferation assay. Cells growing at exponential phase were spun down at 1500 rpm for 4 min and resuspend in fresh medium to reach a density of 0.5×10^6 cells/ml. 200 ul of cells were added to 96 well plate containing diluted drugs and incubated for 3 days. DMSO was used a vehicle control.
One day 3, 10 μL of Cell Counting Kit-8 (CCK-8, Jojindo, CK04-13) solution was added to a new 96 well plate. Cells incubated with drugs for 3 days were resuspended by pipetting up and down, and 100 μL of cells were transferred to 96 well plate containing CCK-8 reagent to measure viable cells. Plates were incubated in CO2 incubator for 2 hours and OD450 values were measured with a microplate reader (iMark microplate reader, Bio-Rad).
For re-plating, compound working stocks were diluted at 1:50 with fresh medium and 10 μL of diluted drugs were added to a new 96 well plate. Cells from Day 3 plate (50 ul) were added to 96 well plate containing fresh drug and additional 150 μL of fresh medium was added to reach 200 μL volume. Plate was returned to CO2 incubator and incubated for 3 more days. Viable cells measurement and re-plating were repeated on day 6, and the final viable cells measurement was taken on day 10.
Percentage of viable cells, relative to DMSO vehicle control, were calculated and plotted in Graphpad Prism ([Inhibitor] vs. normalized response−Variable slope) to determine proliferation IC50 values on day 10.

Chain of PRMT5/MEP50 complex (O14744 whole entry): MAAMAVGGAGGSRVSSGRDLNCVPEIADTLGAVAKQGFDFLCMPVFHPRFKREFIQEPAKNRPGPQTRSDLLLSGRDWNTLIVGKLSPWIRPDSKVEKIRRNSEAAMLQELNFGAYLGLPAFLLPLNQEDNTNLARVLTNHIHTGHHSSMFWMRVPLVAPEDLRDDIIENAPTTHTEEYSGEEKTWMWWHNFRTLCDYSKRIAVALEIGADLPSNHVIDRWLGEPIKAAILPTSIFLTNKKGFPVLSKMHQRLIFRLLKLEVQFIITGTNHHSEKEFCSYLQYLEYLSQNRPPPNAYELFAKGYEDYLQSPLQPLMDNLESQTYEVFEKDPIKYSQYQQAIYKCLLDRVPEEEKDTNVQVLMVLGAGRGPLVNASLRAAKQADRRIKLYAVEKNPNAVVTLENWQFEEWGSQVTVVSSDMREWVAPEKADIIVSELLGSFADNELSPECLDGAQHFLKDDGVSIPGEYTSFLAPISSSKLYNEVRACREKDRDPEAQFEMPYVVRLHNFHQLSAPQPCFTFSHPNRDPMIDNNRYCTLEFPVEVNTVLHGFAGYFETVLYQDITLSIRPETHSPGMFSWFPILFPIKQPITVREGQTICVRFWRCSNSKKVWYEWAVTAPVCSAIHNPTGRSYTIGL
Chain of PRMT5/MEP50 complex (Q9BQA1 whole entry partner): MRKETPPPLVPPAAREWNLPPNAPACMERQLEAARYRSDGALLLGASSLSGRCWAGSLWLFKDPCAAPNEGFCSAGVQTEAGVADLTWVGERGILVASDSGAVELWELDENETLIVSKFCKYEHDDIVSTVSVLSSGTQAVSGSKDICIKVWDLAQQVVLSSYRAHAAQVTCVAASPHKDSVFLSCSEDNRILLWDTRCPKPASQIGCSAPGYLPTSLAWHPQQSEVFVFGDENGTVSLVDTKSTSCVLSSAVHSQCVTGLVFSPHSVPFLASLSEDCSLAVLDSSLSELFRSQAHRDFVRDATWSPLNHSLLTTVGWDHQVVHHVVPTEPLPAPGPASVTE

| SMILES | IC50 [1] [nM] | IC50 [2] [nM] | IC50 [3] [nM] |
| --- | --- | --- | --- |
| C[C@@]1(O)[C@@H](COc2ccc3ccc(N)nc3c2)O[C@@H](n2ccc3c(N)ncnc32)[C@@H]1O [Example 1, (2R,3S,4R,5R)-5-(4-amino-7H-pyrrolo[2,3-d]pyrimidin-7-yl)-2-(((2-aminoquinolin-7-yl)oxy)methyl)-3-methyltetrahydrofuran-3,4-diol] | 0.75 | 15 | 40 |
| Nc1ccc2ccc(OC[C@H]3O[C@@H](n4ccc5c(N)ncnc54)[C@H](O)[C@@]3(O)C(F)(F)F)cc2n1 [Example 2, (2R,3S,4R,5R)-5-(4-amino-7H-pyrrolo[2,3-d]pyrimidin-7-yl)-2-(((2-aminoquinolin-7-yl)oxy)methyl)-3-(trifluoromethyl)tetrahydrofuran-3,4-diol] | 1.9 | 21 |  |
| C#C[C@@]1(O)[C@@H](COc2ccc3ccc(N)nc3c2)O[C@@H](n2ccc3c(N)ncnc32)[C@@H]1O [Example 3, (2R,3S,4R,5R)-5-(4-amino-7H-pyrrolo[2,3-d]pyrimidin-7-yl)-2-(((2-aminoquinolin-7-yl)oxy)methyl)-3-ethynyltetrahydrofuran-3,4-diol] | 1.6 | 44.2 |  |
| C[C@@]1(O)[C@@H](COc2ccc3ccc(N)nc3c2)O[C@@H](n2cc(F)c3c(N)ncnc32)[C@@H]1O [Example 6, (2R,3S,4R,5R)-5-(4-amino-5-fluoro-7H-pyrrolo[2,3-d]pyrimidin-7-yl)-2-(((2-aminoquinolin-7-yl)oxy)methyl)-3-methyltetrahydrofuran-3,4-diol] | 0.85 | 1 | 30 |
| C[C@@]1(O)[C@@H](COc2ccc3cc(Br)c(N)nc3c2)O[C@@H](n2ccc3c(N)ncnc32)[C@@H]1O [Example 12, (2R,3S,4R,5R)-2-(((2-amino-3-bromoquinolin-7-yl)oxy)methyl)-5-(4-amino-7H-pyrrolo[2,3-d]pyrimidin-7-yl)-3-methyltetrahydrofuran-3,4-diol] | 0.5 | 1 |  |
| CSC[C@H]1O[C@@H](n2ccc3c(N)ncnc32)[C@H](O)[C@]1(C)O [Example 17, (2S,3S,4R,5R)-5-(4-amino-7H-pyrrolo[2,3-d]pyrimidin-7-yl)-3-methyl-2-((methylthio)methyl)tetrahydrofuran-3,4-diol] | 900 | 1000 | 200000 |
| C[C@@]1(O)[C@@H](COc2cccc(CN)c2)O[C@@H](n2ccc3c(N)ncnc32)[C@@H]1O [Example 22, (2R,3S,4R,5R)-5-(4-amino-7H-pyrrolo[2,3-d]pyrimidin-7-yl)-2-((3-(aminomethyl)phenoxy)methyl)-3-methyltetrahydrofuran-3,4-diol] | 126 | 60000 |  |
| C[C@@]1(O)[C@@H]([C@H](O)c2ccc(Cl)cc2)O[C@@H](n2ccc3c(N)ncnc32)[C@@H]1O [Example 26, (2R,3S,4R,5R)-5-(4-amino-7H-pyrrolo[2,3-d]pyrimidin-7-yl)-2-((R)-(4-chlorophenyl)(hydroxy)methyl)-3-methyltetrahydrofuran-3,4-diol] | 4.8 | 51.4 | 660 |
| C[C@@]1(O)[C@@H](Cc2ccc(Cl)c(Cl)c2)O[C@@H](n2ccc3c(N)ncnc32)[C@@H]1O [Example 50, (2R,3S,4R,5R)-5-(4-amino-7H-pyrrolo[2,3-d]pyrimidin-7-yl)-2-(3,4-dichlorobenzyl)-3-methyltetrahydrofuran-3,4-diol] | 17 | 9000 |  |
| Cc1ncnc2c1ccn2[C@@H]1O[C@H](COc2ccc3cc(Br)c(N)nc3c2)[C@@](C)(O)[C@H]1O [Example 55, (2R,3S,4R,5R)-2-(((2-amino-3-bromoquinolin-7-yl)oxy)methyl)-3-methyl-5-(4-methyl-7H-pyrrolo[2,3-d]pyrimidin-7-yl)tetrahydrofuran-3,4-diol] | 0.8 | 5.1 |  |
| Cc1cc([C@@H](O)[C@H]2O[C@@H](n3ccc4c(N)ncnc43)[C@H](O)[C@]2(C)O)ccc1Cl [Example 56, (2R,3S,4R,5R)-5-(4-amino-7H-pyrrolo[2,3-d]pyrimidin-7-yl)-2-((R)-(4-chloro-3-methylphenyl)(hydroxy)methyl)-3-methyltetrahydrofuran-3,4-diol] | 68 |  | 203 |
| Cc1cc([C@@H](O)[C@H]2O[C@@H](n3ccc4c(C)ncnc43)[C@H](O)[C@]2(C)O)ccc1Cl [Example 57, (2R,3S,4R,5R)-2-((R)-(4-chloro-3-methylphenyl)(hydroxy)methyl)-3-methyl-5-(4-methyl-7H-pyrrolo[2,3-d]pyrimidin-7-yl)tetrahydrofuran-3,4-diol] | 11 |  | 913 |
| Cc1ncnc2c1ccn2[C@@H]1O[C@H]([C@H](O)c2ccc(Cl)c(Cl)c2)[C@@](C)(O)[C@H]1O [Example 58, (2R,3S,4R,5R)-2-((R)-(3,4-dichlorophenyl)(hydroxy)methyl)-3-methyl-5-(4-methyl-7H-pyrrolo[2,3-d]pyrimidin-7-yl)tetrahydrofuran-3,4-diol] | 11 | 3160 | 10000 |
| Cc1ncnc2c1ccn2[C@@H]1O[C@H]([C@H](O)c2ccc(C(F)(F)F)cc2)[C@@](C)(O)[C@H]1O [Example 62, (2R,3S,4R,5R)-2-((R)-hydroxy(4-(trifluoromethyl)phenyl)methyl)-3-methyl-5-(4-methyl-7H-pyrrolo[2,3-d]pyrimidin-7-yl)tetrahydrofuran-3,4-diol] | 7 | 415 |  |
| C[C@@]1(O)[C@@H]([C@H](O)c2ccc(F)c(C(F)(F)F)c2)O[C@@H](n2ccc3c(N)ncnc32)[C@@H]1O [Example 63, (2R,3S,4R,5R)-5-(4-amino-7H-pyrrolo[2,3-d]pyrimidin-7-yl)-2-((R)-(4-fluoro-3-(trifluoro-methyl)phenyl)(hydroxy)methyl)-3-methyltetrahydrofuran-3,4-diol] | 3 | 71 | 231 |
| Cc1ncnc2c1ccn2[C@@H]1O[C@H](Cc2ccc(Cl)cc2CO)[C@@](C)(O)[C@H]1O [Example 64, (2R,3S,4R,5R)-2-(4-chloro-2-(hydroxymethyl)benzyl)-3-methyl-5-(4-methyl-7H-pyrrolo[2,3-d]pyrimidin-7-yl)tetrahydrofuran-3,4-diol] | 1610 |  |  |
| C[C@@]1(O)[C@@H](Cc2ccc(Cl)cc2CO)O[C@@H](n2ccc3c(N)ncnc32)[C@@H]1O [Example 65, (2R,3S,4R,5R)-5-(4-amino-7H-pyrrolo[2,3-d]pyrimidin-7-yl)-2-(4-chloro-2-(hydroxymethyl)benzyl)-3-methyltetrahydrofuran-3,4-diol] | 413 |  |  |
| Cc1ncnc2c1ccn2[C@@H]1O[C@H](COc2ccn3c(C)cnc3c2)[C@@](C)(O)[C@H]1O [Example 67, (2R,3S,4R,5R)-3-methyl-5-(4-methyl-7H-pyrrolo[2,3-d]pyrimidin-7-yl)-2-(((3-methylimidazo[1,2-a]pyridin-7-yl)oxy)methyl)tetrahydrofuran-3,4-diol] | 1 | 46 |  |
| Cc1cnc2cc(OC[C@H]3O[C@@H](n4ccc5c(N)ncnc54)[C@H](O)[C@]3(C)O)ccn12 [Example 68, (2R,3S,4R,5R)-5-(4-amino-7H-pyrrolo[2,3-d]pyrimidin-7-yl)-3-methyl-2-(((3-methylimidazo[1,2-a]pyridin-7-yl)oxy)methyl)tetrahydrofuran-3,4-diol] | 0.9 |  |  |
